# Data from article PMC12463676, “Small-molecule dissolution of stress granules by redox modulation benefits ALS models” (Nature Chemical Biology, 2025).
# Residue numbers refer to the chain shown, from its start.
# Tests used:
# FUS–GFP [1] = biological target: T1, FUS–GFP (Homo sapiens, UniProt P35637, G156E); assay: condensate ageing: FRAP and fibre formation; type: biochemical; details: 30 uM compound, 50 mM KCl, 1 mM DTT, pH 7.4, shaking; condensates
# T1 construct: full-length FUS with C-terminal GFP; 6xHis-MBP tag cleaved by 3C protease; Sf9 insect cells; condensates at low salt
# T1 sequence (P35637 1-526 G156E): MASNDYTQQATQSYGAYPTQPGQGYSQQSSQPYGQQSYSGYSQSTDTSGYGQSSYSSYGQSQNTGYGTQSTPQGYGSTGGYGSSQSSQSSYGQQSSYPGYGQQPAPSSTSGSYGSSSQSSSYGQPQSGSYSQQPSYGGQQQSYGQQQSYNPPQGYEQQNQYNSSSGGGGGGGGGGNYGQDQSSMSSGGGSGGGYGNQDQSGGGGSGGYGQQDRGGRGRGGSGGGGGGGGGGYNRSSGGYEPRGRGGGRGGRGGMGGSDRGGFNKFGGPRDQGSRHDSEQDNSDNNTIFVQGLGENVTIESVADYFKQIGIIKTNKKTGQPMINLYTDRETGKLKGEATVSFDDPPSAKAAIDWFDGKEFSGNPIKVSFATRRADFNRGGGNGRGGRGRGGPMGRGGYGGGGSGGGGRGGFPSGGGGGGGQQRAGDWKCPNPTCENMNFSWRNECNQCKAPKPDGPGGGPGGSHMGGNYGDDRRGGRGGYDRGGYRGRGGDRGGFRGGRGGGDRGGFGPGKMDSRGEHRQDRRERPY
# FUS–GFP [2] = biological target: T2, FUS–GFP (Homo sapiens, UniProt P35637); assay: imaging of FUS-GFP condensates in vitro; type: biochemical; details: 100 uM compound, 50 mM KCl, 1 mM DTT, pH 7.4, 0.7 uM FUS-GFP
# T2 construct: full-length FUS with C-terminal GFP; 6xHis-MBP tag cleaved by 3C protease; Sf9 insect cells; condensates at low salt
# T2 sequence (P35637 1-526): T1 sequence (P35637 1-526 G156E) with E156G
SMILES,condensate ageing: FRAP and fibre formation (FUS–GFP [1]),imaging of FUS-GFP condensates in vitro (FUS–GFP [2])
O=C(O)CCCC[C@@H]1CCSS1 [lipoic acid],Both lipoamide and lipoic acid reduced FUS-G156E–GFP condensate hardening and fiber formation,
O=C1c2c(O)ccc(O)c2C(=O)c2c(NCCNCCO)ccc(NCCNCCO)c21 [mitoxantrone],,the fewer smaller drops with mitoxantrone
NC(=O)CCCCC1CCSS1 (racemic) [lipoamide],Both lipoamide and lipoic acid reduced FUS-G156E–GFP condensate hardening and fiber formation,
